Tests used:
[1] = clinical literature; cited from earlier work
rats [2] = test: Locomotor activity test; type: in vivo, Male Sprague Dawley rats
Protocol: (§1) Male Sprague Dawley rats 200-300 g (Charles River, Margate, U.K.) were housed in group of five per cage under a 12 h light/dark cycle with food and water available ad libitum. Each experiment was carried out with groups of at minimum 7 rats. All procedures in this study were performed in accordance with the Home Office Animals (Scientific Procedures) Act 1986 and accordingly with our Project License, after the experiment, animals were sacrificed by schedule 1 method.
The spontaneous locomotor activity of rats in a novel environment was monitored for 30 min in a 35×20 cm Perspex chamber. The cage was equipped with two series photocells located at 2 and 15 cm above the floor (San Diego Instruments, CA, USA). To measure drug-induced decrease locomotion such as morphine and gabapentin, at a pre-defined time post drug administration, each animal was placed in the centre of the cage. To measure drug-induced increase in locomotion such as phencyclidine (PCP) rats were placed in the cage at least 30 min before recording. total activity (ambulation and rearing) was monitored every 5 min for 30 min.
(§2) In the locomotor activity task, total counts are the sum of horizontal and vertical movements (photo beam breaks) in 30 minutes recording. For PCP vertical and horizontal activity are analysed separately. Data were expressed as the arithmetic mean ±SEM and analysed by ANOVA. In the beam walking test, the time to cross the beam (seconds) and the number of foot slips were expressed as mean ±SEM and analysed by ANOVA and Mann Whitney U test, respectively.

rats [3] = test: Beam walking test; type: in vivo, Male Sprague Dawley rats
Protocol: as §1
The Beam walking apparatus consists of a 1.5 m long beam with a 2.5×2.5 cm square cross section, elevated 75 cm above the floor. The test was performed in dim light conditions (18 lux). A light source (520 lux) was placed at the start-end of the beam while a dark box at the other side (Feeney D M et al, Amphetamine, Haloperidol, and experience interact to affect rate of recovery after motor cortex injury, Science 217, 1982). Rats were habituated to the dim light condition for at least 1 hour before the beginning of the training sessions. Rats were trained to cross the beam over 2 days, twice a day. The first day, rodents were trained to cross starting from last quarter and half of the beam until the dark box, in the first and second session, respectively. The following day rodents were trained to cross the entire length of the beam twice. At least 2 hours were left between each daily session. On the day of test a baseline recording was registered before compound administration and rats were selected based on their ability to cross the beam with no major impairments. Therefore, only rodents that crossed the beam in less than 10 seconds and showing two or less foot slips were used for the assessment of drug-induced motor impairments. Then rats were tested for their ability to cross the beam at various time points after drug injection. The time taken to cross and the number of foot slips produced while a rat was crossing the beam were counted. […] No movement or freezing behaviours were also scored with the maximum value.
as §2

[4] = 1 and 10 mg/kg ip, 1 hr post injection

NCC1(CC(=O)O)CCCCC1 [Gabapentin]
adverse events in humans [1]: dizziness and somnolence | decrease in locomotor activity (of vehicle-treated group) (rats [2]; 100 mg/kg PO (highest dose), one hour post dose): 27% | locomotor activity, effect (rats [2]; 100 mg/kg in rats): small (albeit statistically significant) decrease | locomotor activity, effect across doses (rats [2]; 10, 30 and 100 mg/kg PO, one hour post dose): decreased significantly the locomotor activity of rats at the highest dose only | total counts in 30 min (rats [2]; gabapentin highest dose 100 mg/kg PO, one hour post dose): 262±25 counts | number of foot slips, effect (rats [3]; 100 mg/kg in rats): robust increase | time to cross the beam, effect (rats [3]; 30, 100 and 300 mg/kg PO, up to 6 hrs, p<0.05): only at 3 and 4 hour post administration the highest dose significantly increase the time to cross | duration of effect on foot slips (lasting till) (rats [3]; PO): 4 h | time of peak effect on foot slips (rats [3]; PO): 2 h | lowest dose increasing number of foot slips (rats [3]; PO, 30, 100 and 300 mg/kg tested, dose dependent): 100 mg/kg | rats that fell off the beam (rats [3]; PO, 2 hours post dose): 25% | rats that fell off the beam (rats [3]; PO, 3 hours post dose): 25% | number of foot slips (rats [3]; PO, dose not stated, 1 hour post dose, water treated 0.6±0.4): 1.5±0.5 | number of foot slips (peak effect) (rats [3]; PO, dose not stated, 2 hours post dose, vehicle 0.2±0.2, p<0.01): 2.9±0.5

c1ccc(C2(N3CCCCC3)CCCCC2)cc1 [PCP, phencyclidine]
adverse events in humans [1]: induce ataxia | observed signs (rats [2]; 10 mg/kg ip): signs of ataxia | vertical activity (rearing) (rats [2]; 10 mg/kg, standard protocol for drug-induced decrease in movement, vehicle 186±17, p<0.01, data not shown): 30±9 | total activity (vertical+horizontal) vs vehicle-treated group (rats [2]; [4]): did not change significantly | vertical movement (rats [2]; [4]): only the lower dose significantly increased the vertical movement | horizontal activity (rats [2]; 1 and 10 mg/kg ip, 1 hr post injection, p<0.05): increased the horizontal activity in a dose dependent manner | number of foot slips, effect (rats [3]; 1 mg/kg ip, 2 hours post dose, p<0.05): slight but significant increase | rodents that could not be placed on the beam (lack of paw coordination) (rats [3]; 10 mg/kg ip, 30 min post dose): 100% | rodents that could not be placed on the beam (lack of paw coordination) (rats [3]; 10 mg/kg ip, 1 hour post dose): 100% | animals that did cross the beam (rats [3]; 10 mg/kg ip, 2 hours post dose): 80% | number of foot slips (rats [3]; 10 mg/kg ip, 2 hours post dose, animals that crossed): ≥ 5 | time taken to cross the beam vs controls (rats [3]; 10 mg/kg ip, 2 hours post dose, p<0.01): significantly different from controls | recovery (rats [3]; 10 mg/kg ip, 4 hrs post dose): almost all rats recovered | time taken to cross the beam, effect across doses (rats [3]; 0.1-1-10 mg/kg ip): increased the time taken to cross the beam at the higher dose only | number of foot slips, effect (rats [3]; lower dose (0.1 mg/kg ip)): no effect

CN1CC[C@]23c4c5ccc(O)c4O[C@H]2[C@@H](O)C=C[C@H]3[C@H]1C5.O=S(=O)(O)O [Morphine sulphate]
adverse events in humans [1]: somnolence, sedation and addiction | total counts (horizontal + vertical) in 30 min (rats [2]; 10 mg/kg SC, 30 min post dose, vehicle 424±23, p<0.01): 28±6 counts | total counts in 30 min (rats [2]; morphine 3 mg/kg, comparator in gabapentin study): 138±26 counts | locomotion in the beam walking (rats [3]; 3 mg/kg SC, any time point (30 min, 1, 2, 3 h)): did not modify the locomotion | time to cross the beam (rats [3]; 10 mg/kg SC, 30 min post dose, controls 4.1±0.7, significant): 12.6 ± 0.7 s | number of foot slips (rats [3]; 10 mg/kg SC, 30 minutes post dose, vehicle 0.1±0.1, not statistically different): 1.0±0.6 | number of foot slips (rats [3]; 10 mg/kg SC, 1 hr post dose, vehicle 0.1±0.1, not statistically different): 1.0±0.6 | rats falling off the beam (rats [3]; 3 and 10 mg/kg SC): No rats fell off the beam | MED (minimal effective dose) in beam walking (rats [3]; SC): 10 mg/kg

From patent US20080294071A1, “Assay Method” (priority 2004, published 2008)
